Like-named read-outs stand apart in the source and are kept apart here.
Key:
[1] = system: CRP; test: CRP measurements in 14 week blinded, randomized study; assay type: in vivo, human; settings: 3 mg Prednisolone + Placebo, N = 69, ITT (LOCF)
Experimental: CRP is an acute phase response protein whose production is stimulated by cytokines, particularly interleukin-6 (IL-6). The relationship between inflammatory processes and elevation in plasma CRP and pro-inflammatory cytokines is well known. Typically a serum CRP level of >3 mg/L is considered elevated. Serum CRP levels can be measured by standard techniques known in the art, e.g., ELISA assays (Kamiya Biomedical Co., Seattle, Wash.).
We conducted a 14 week blinded, randomized study including a split dose corticosteroid therapy or placebo, with regular CRP and inflammatory cytokine measurements. The study population had active rheumatoid arthritis.
(§1) Screening Visit • Day 1 (Baseline Visit)—Start of Run-In Period • Day 14 (±2 days)—End of Run-In Period/Start of Treatment Period • Day 42 (±2 days) • Day 70 (±2 days)—End of Treatment Period/Start of Withdrawal Period • Day 98 (±2 days)—End of Study
The powered study ended after these first 10 weeks. […] A schematic of the study design is shown below.

[2] = system: active rheumatoid arthritis; settings: 3 mg Prednisolone + Placebo, N = 69, ITT (LOCF)
Excerpt: A visual analog scale (VAS) provides a measure of a one-dimensional quantity. A VAS generally utilizes a representation of distance, such as a picture of a line with hash marks drawn at regular distance intervals, e.g., ten 1-cm intervals. […] This procedure provides a simple and rapid approach to obtaining quantitative information about how the patient is experiencing pain. VAS scales can also be used, e.g., to measure fatigue. VAS scales and their use are described, e.g., in U.S. Pat. Nos. 6,709,406 and 6,432,937.
We conducted a 14 week blinded, randomized study including a split dose corticosteroid therapy or placebo, with regular CRP and inflammatory cytokine measurements. The study population had active rheumatoid arthritis. The subject must otherwise have been in good general health.
as §1
All eligible subjects received DMARD therapy in a stable dose. Subjects were evaluated for study eligibility at the Screening visit, which was conducted within 14 days before the first dose of study drug. The subject provided written informed consent to participate in the study before any Screening laboratory samples were collected or evaluations performed.
All subjects were given 3 mg prednisolone alone for 2 weeks (Run-In Period). Subjects were then randomized into treatment groups to additionally receive 10 mg paroxetine, 20 mg paroxetine or placebo tablets for 8 weeks (Combination Treatment Period). The powered study ended after these first 10 weeks. All subjects continued in an un-powered part of the study for an additional 4 weeks (Withdrawal Period). In this portion of the study, half of the subjects on 10 mg or 20 mg paroxetine plus 3 mg prednisolone stopped taking paroxetine, and instead took 3 mg prednisolone plus placebo, while the other half stopped taking prednisolone, and instead took either dose of paroxetine plus placebo. Similarly, half of the subjects on prednisolone plus placebo stopped the prednisolone, and instead took two placebo tablets, while the other half continued the regimen of 3 mg prednisolone plus placebo. A schematic of the study design is shown below.

C[C@]12C=CC(=O)C=C1CC[C@@H]1[C@@H]2[C@@H](O)C[C@@]2(C)[C@H]1CC[C@]2(O)C(=O)CO [Prednisolone, prednisolone]
CRP % Change from baseline, Mean ([1]; Day 14): 7.11% | CRP Change from baseline, Mean ([1]; Day 14): −7.40 | CRP Value, Mean ([1]; Day 14): 11.42 | CRP % Change from baseline, Mean ([1]; Day 42): −17.67% | CRP Change from baseline, Mean ([1]; Day 42): −8.61 | CRP Value, Mean ([1]; Day 42): 10.22 | CRP % Change from baseline, Mean ([1]; Day 70): −13.66% | CRP Change from baseline, Mean ([1]; Day 70): −8.95 | CRP Value, Mean ([1]; Day 70): 9.88 | Patient Pain Assessment (VAS) Score % Change from baseline, Mean ([2]; Day 14): −13.65% | Patient Pain Assessment (VAS) Score Change from baseline, Mean ([2]; Day 14): −7.73 | Patient Pain Assessment (VAS) Score Value, Mean ([2]; Day 14): 45.58 | Patient Pain Assessment (VAS) Score % Change from baseline, Mean ([2]; Day 42): −19.23% | Patient Pain Assessment (VAS) Score Change from baseline, Mean ([2]; Day 42): −10.57 | Patient Pain Assessment (VAS) Score Value, Mean ([2]; Day 42): 42.74 | Patient Pain Assessment (VAS) Score % Change from baseline, Mean ([2]; Day 70): −17.84% | Patient Pain Assessment (VAS) Score Change from baseline, Mean ([2]; Day 70): −12.28 | Patient Pain Assessment (VAS) Score Value, Mean ([2]; Day 70): 41.04

From patent publication US20080287406A1, “Compositions and methods for treating medical conditions” (priority 2007, published 2008)
